# Source: patent US8648012B2, “Herbicidal compositions comprising naptalam” (BASF SE, priority 2009, dated 2014)
# What was measured:
# [1] = test system: common lambsquarters (Chenopodium album; CHEAL); test: Example 6: weed control of clopyralid or picloram plus naptalam mixtures; assay type: in vivo; conditions: postemergence
# Procedure: (§1) Seedlings of common amaranth (Amaranthus retroflexus AMARE) and common lambsquarters (Chenopodium album; CHEAL), each 8 to 10 cm in height, were treated with postemergence applications of either clopyralid at 53.5 g ae/ha, picloram at 5.6 g ae/ha or naptalam at 140 g ae/ha, or the combination of clopyralid and naptalam at 53.5 g ae/ha and 140 g ae/ha, or the combination of picloram and naptalam at 5.6 g ae/ha and 140 g ae/ha, respectively, when they were 8-10 cm in height. All treatment mixtures contained 0.25% (v/v) non-ionic surfactant. […] Percent injury data was collected 10 days after treatment (DAT).
# [2] = test system: common amaranth (Amaranthus retroflexus AMARE); test: as above; assay type: in vivo; conditions: postemergence
# Procedure: as §1
# [3] = test system: sunflower (helianthus sp. HELSS); test: Example 8: weed control of clopyralid+naptalam mixtures; assay type: in vivo; conditions: postemergence
# Procedure: Seedlings of sunflower (helianthus sp. HELSS) were treated with postemergence applications of either clopyralid at 210 g ae/ha or at 105 g ae/ha, or naptalam at 56 g ae/ha, or the combination of clopyralid and naptalam at 210+56 g ae/ha or at 105+56 g ae/ha, respectively, when they were 8-10 cm in height. All treatment mixtures contained 0.25% (v/v) non-ionic surfactant. […] Percent injury data was collected 10 days after treatment (DAT).
# [4] = test system: Winter wheat (Triticum aestivum, TRZAW); test: Example 3: preemergence crop selectivity of dicamba plus naptalam; assay type: in vivo; conditions: 13 DAT
# Procedure: (§2) In all use examples, plants were grown in a greenhouse environment.
# (§3) Naptalam was used as a commercial SL formulation containing 240 g/l of naptalam (Alanap-L from Cheminova). Clopyralid was used as a commercial SL formulation containing 360 g/l of clopyralid (Stinger of Dow Agroscience). Picloram was used as a commercial SL formulation containing 240 g/l of picloram (Tordon 22K of Dow Agroscience). A mixture of 2,4-D+MCPP+Dicamba was used as a commercial SL formulation containing 283 g/l of 2,4-D, 63 g/l of MCPP and 25 g/l of Dicamba (Trimec Classic of PBI Gordon Corp.). Dicamba was used as a commercial SL formulation containing 480 g/l of Dicamba (Clarity BASF).
# (§4) The evaluation for the plant damage or injury caused by the chemical compositions was carried out using a scale from 0 to 100%, when compared with the untreated control plants. Here, 0 means no damage and 100 means complete destruction of the plants. I50 values were estimated from % injury data at different application rates by non-linear regression of log-logistic dose-response curves.
# Winter wheat (Triticum aestivum, TRZAW) seeds were sown into soil, and the following day treated with five different rates of dicamba between 5.6 and 560 g ae/ha. Diflufenzopr (DFFP) or naptalam at rates of 224 g ae/ha was applied either alone or in combination with dicamba treatments. Following application, pots were placed in a completely randomized design with four replications per treatment. Percent injury data was collected 13 DAT.
# [5] = test system: tall fescue (Festuca arundinacea, FESAR); test: Example 4: postemergence turf selectivity of dicamba plus naptalam; assay type: in vivo; conditions: 13 DAT
# Procedure: as §2, §3, §4
# (§5) Seedlings of tall fescue (Festuca arundinacea, FESAR) or perennial ryegrass (Lolium perenne, LOLPE) were treated with five different rates of dicamba between 28 and 2800 g ae/ha when they were 10-14 cm in height. DFFP or naptalam at rates of 140 g ae/ha were applied either alone or in combination with dicamba treatments. All treatment mixtures contained 0.25% (v/v) non-ionic surfactant plus 1% (w/v) ammonium sulfate. Following treatment, plants were placed in a completely randomized design with four replications per treatment. Percent injury data was collected 13 DAT.
# [6] = test system: perennial ryegrass (Lolium perenne, LOLPE); test: as above; assay type: in vivo; conditions: 13 DAT
# Procedure: as §2, §3, §4, §5
# TRZAW = test: Example 5: postemergence wheat selectivity of dicamba plus naptalam; assay type: in vivo, Triticum aestivum; conditions: 8 DAT
# Procedure: as §2, §3, §4
# Seedlings of TRZAW were treated with five different rates of dicamba between 14 and 1400 g ae/ha when they were 12-14 cm in height. In addition, DFFP or naptalam at 70 g ae/ha were applied either alone or in combination with dicamba treatments. All treatment mixtures contained 0.25% (v/v) non-ionic surfactant plus 1% (w/v) ammonium sulfate. Following treatment, plants were placed in a completely randomized design with four replications per treatment. Percent injury data was collected 8 DAT.
# ABUTH = conditions: naptalam 0 g ae/ha
# Procedure: as §2, §3, §4
# (§6) Seedlings of ABUTH or CHEAL were treated with five different rates of dicamba between 0.14 and 140 g ae/ha when they were 10-12 cm in height. Naptalam was mixed with dicamba at rates of 0, 28, 35, 47, 70, or 140 g ae/ha to each dose-response series. All treatment mixtures included the addition of 0.25% (v/v) non-ionic surfactant and 1% (w/v) ammonium sulfate. Plants were placed in a completely randomized design with four replications per treatment. Percent injury data was collected 11 DAT and used to estimate the amount of dicamba necessary to obtain 50% injury (I50). […] estimates for solo applications of dicamba (I50 (—NPA)) were compared with I50 estimates for the combined application of dicamba and naptalam (I50 (+NPA)) to determine the relative increase of dicamba activity through the addition of naptalam.
# CHEAL = conditions: naptalam 0 g ae/ha
# Procedure: as §2, §3, §4, §6
# [7] = test system: Palmer amaranth (Amaranthus palmeri; AMAPA); test: Example 1: postemergence weed control of dicamba plus naptalam mixtures, greenhouse; assay type: in vivo; conditions: 10 DAT
# Procedure: as §2, §3, §4
# (§7) 22 ff. E=X+Y−(X·Y/100) where • X=effect in percent using herbicide A at an application rate a; • Y=effect in percent using herbicide B at an application rate b; • E=expected effect (in %) of A+B at application rates a+b.
# (§8) The value E corresponds to the effect (plant damage or injury) which is to be expected if the activity of the individual compounds is just additive. If the observed effect is higher than the value E calculated according to Colby, a synergistic effect is present.
# (§9) Seedlings of velvetleaf (Abutilon theophrasti; ABUTH), Palmer amaranth (Amaranthus palmeri; AMAPA), and common lambsquarters (Chenopodium album; CHEAL) were treated with postemergence applications of either dicamba at 140 or 280 g ae/ha, naptalam at 56 g ae/ha, or the combination of dicamba and naptalam at 140 and 56 g ae/ha, respectively, when they were 10-12 cm in height. All treatment mixtures contained 0.25% (v/v) non-ionic surfactant plus 1% (w/v) ammonium sulfate. Plants were placed in a completely randomized design with four replications per treatment. Percent injury data was collected 10 days after treatment (DAT).
# [8] = test system: common lambsquarters (Chenopodium album; CHEAL); test: as above; assay type: in vivo; conditions: 10 DAT
# Procedure: as §2, §3, §4, §7, §8, §9
# [9] = test system: velvetleaf (Abutilon theophrasti; ABUTH); test: as above; assay type: in vivo; conditions: 10 DAT
# Procedure: as §2, §3, §4, §7, §8, §9
# [10] = test system: sunflower (helianthus sp. HELSS); test: Example 7: weed control of 2,4-D+MCPP+dicamba+naptalam mixtures; assay type: in vivo; conditions: postemergence, naptalam 56 g ae/ha
# Procedure: as §2, §3, §4
# Plants were placed in a completely randomized design with four replications per treatment. Percent injury data was collected 10 days after treatment (DAT).
# [11] = DFFP 140 g ae/ha alone (dicamba 0)
# [12] = naptalam 140 g ae/ha alone (dicamba 0)
smiles,measurement,setting,value
"O=C(O)c1nc(Cl)ccc1Cl [Clopyralid, clopyralid]",Mean % Control (10 DAT) CHEAL,[1]; clopyralid 53.5 g ae/ha,25%
same,Mean % Control (10 DAT) AMARE,[2]; clopyralid 53.5 g ae/ha,23%
same,Mean % Control (10 DAT) HELSS,[3]; clopyralid 105 g ae/ha,28%
same,Mean % Control (10 DAT) HELSS,[3]; clopyralid 210 g ae/ha,83%
"C/C(=N\NC(=O)Nc1cc(F)cc(F)c1)c1ncccc1C(=O)O [DFFP, diflufenzopyr]",TRZAW Mean % Injury,[4]; DFFP 224 g ae/ha alone (dicamba 0),61.3%
same,FESAR Mean % Injury,[5]; [11],38.8 b %
same,LOLPE Mean % Injury,[6]; [11],30.0 c %
same,TRZAW Mean % Injury,TRZAW; DFFP 70 g ae/ha alone (dicamba 0),8.8%
"COc1c(Cl)ccc(Cl)c1C(=O)O [Dicamba, 3,6-dichloro-2-methoxybenzoic acid]",TRZAW Mean % Injury,[4]; dicamba alone 5.6 g ae/ha,0%
same,TRZAW Mean % Injury,[4]; dicamba alone 17.7 g ae/ha,0%
same,TRZAW Mean % Injury,[4]; dicamba alone 56.0 g ae/ha,0%
same,TRZAW Mean % Injury,[4]; dicamba alone 177.0 g ae/ha,0%
same,TRZAW Mean % Injury,[4]; dicamba alone 560.0 g ae/ha,76.3%
same,ABUTH I50 (amount of dicamba for 50% injury),ABUTH; 11 DAT,80.2 g ae/ha
same,ABUTH Fold-increase of dicamba activity = I50 (-NPA)/I50(+NPA),ABUTH,1.0
same,CHEAL I50 (amount of dicamba for 50% injury),CHEAL; 11 DAT,35.2 g ae/ha
same,CHEAL Fold-increase of dicamba activity = I50 (-NPA)/I50(+NPA),CHEAL,1.0
same,FESAR Mean % Injury,[5]; dicamba alone 28.0 g ae/ha,0 c %
same,FESAR Mean % Injury,[5]; dicamba alone 88.5 g ae/ha,2.5 c %
same,FESAR Mean % Injury,[5]; dicamba alone 280 g ae/ha,5.0 c %
same,FESAR Mean % Injury,[5]; dicamba alone 885 g ae/ha,7.5 c %
same,FESAR Mean % Injury,[5]; dicamba alone 2800 g ae/ha,32.5 b %
same,LOLPE Mean % Injury,[6]; dicamba alone 28.0 g ae/ha,0 e %
same,LOLPE Mean % Injury,[6]; dicamba alone 88.5 g ae/ha,0 e %
same,LOLPE Mean % Injury,[6]; dicamba alone 280 g ae/ha,0 e %
same,LOLPE Mean % Injury,[6]; dicamba alone 885 g ae/ha,0 e %
same,LOLPE Mean % Injury,[6]; dicamba alone 2800 g ae/ha,7.5 de %
same,TRZAW Mean % Injury,TRZAW; dicamba alone 14.0 g ae/ha,0%
same,TRZAW Mean % Injury,TRZAW; dicamba alone 44.0 g ae/ha,2.5%
same,TRZAW Mean % Injury,TRZAW; dicamba alone 140 g ae/ha,5.0%
same,TRZAW Mean % Injury,TRZAW; dicamba alone 440 g ae/ha,25.0%
same,TRZAW Mean % Injury,TRZAW; dicamba alone 1400 g ae/ha,50.0%
same,Mean % Control AMAPA,[7]; dicamba 140 g ae/ha,80.0%
same,Mean % Control AMAPA,[7]; dicamba 280 g ae/ha,96.3%
same,Mean % Control CHEAL,[8]; dicamba 140 g ae/ha,86.3%
same,Mean % Control CHEAL,[8]; dicamba 280 g ae/ha,98.5%
same,Mean % Control ABUTH,[9]; dicamba 140 g ae/ha,65.0%
same,Mean % Control ABUTH,[9]; dicamba 280 g ae/ha,91.3%
"O=C(O)c1ccccc1C(=O)Nc1cccc2ccccc12 [Naptalam, N-1-naphthylphthalamic acid]",TRZAW Mean % Injury,[4]; naptalam 224 g ae/ha alone (dicamba 0),0%
same,Mean % Control (10 DAT) CHEAL,[1]; naptalam 140 g ae/ha,5%
same,Mean % Control (10 DAT) AMARE,[2]; naptalam 140 g ae/ha,0%
same,Mean % Control (10 DAT) HELSS,[3]; naptalam 56 g ae/ha,10%
same,Mean % Control (10 DAT) HELSS,[10],12%
same,FESAR Mean % Injury,[5]; [12],0 c %
same,LOLPE Mean % Injury,[6]; [12],0 e %
same,TRZAW Mean % Injury,TRZAW; naptalam 70 g ae/ha alone (dicamba 0),0%
same,Mean % Control AMAPA,[7]; naptalam 56 g ae/ha,18.8%
same,Mean % Control CHEAL,[8]; naptalam 56 g ae/ha,0%
same,Mean % Control ABUTH,[9]; naptalam 56 g ae/ha,0%
"Nc1c(Cl)c(Cl)nc(C(=O)O)c1Cl [Picloram, picloram]",Mean % Control (10 DAT) CHEAL,[1]; picloram 5.6 g ae/ha,43%
same,Mean % Control (10 DAT) AMARE,[2]; picloram 5.6 g ae/ha,43%
